Here are results for 20 compounds from ChEMBL document CHEMBL4480376, “Studies on spiro[4.5]decanone prolyl hydroxylase domain inhibitors” (Medchemcomm, 2019).

Active and inactive are the calls of the source. The calls are words filed in the database; no cut-off is given here. Bounds are passed on as bounds.

A short description of assay [1]: Inhibition of FIH (unknown origin) using HIF-1alpha CAD (D788 to L822 residues) as substrate. On the set-up: species or system Homo sapiens.
Assay [2] deals with T1, Lysine-specific demethylase 4A (Homo sapiens, UniProt O75164).
T1 sequence (O75164 whole entry): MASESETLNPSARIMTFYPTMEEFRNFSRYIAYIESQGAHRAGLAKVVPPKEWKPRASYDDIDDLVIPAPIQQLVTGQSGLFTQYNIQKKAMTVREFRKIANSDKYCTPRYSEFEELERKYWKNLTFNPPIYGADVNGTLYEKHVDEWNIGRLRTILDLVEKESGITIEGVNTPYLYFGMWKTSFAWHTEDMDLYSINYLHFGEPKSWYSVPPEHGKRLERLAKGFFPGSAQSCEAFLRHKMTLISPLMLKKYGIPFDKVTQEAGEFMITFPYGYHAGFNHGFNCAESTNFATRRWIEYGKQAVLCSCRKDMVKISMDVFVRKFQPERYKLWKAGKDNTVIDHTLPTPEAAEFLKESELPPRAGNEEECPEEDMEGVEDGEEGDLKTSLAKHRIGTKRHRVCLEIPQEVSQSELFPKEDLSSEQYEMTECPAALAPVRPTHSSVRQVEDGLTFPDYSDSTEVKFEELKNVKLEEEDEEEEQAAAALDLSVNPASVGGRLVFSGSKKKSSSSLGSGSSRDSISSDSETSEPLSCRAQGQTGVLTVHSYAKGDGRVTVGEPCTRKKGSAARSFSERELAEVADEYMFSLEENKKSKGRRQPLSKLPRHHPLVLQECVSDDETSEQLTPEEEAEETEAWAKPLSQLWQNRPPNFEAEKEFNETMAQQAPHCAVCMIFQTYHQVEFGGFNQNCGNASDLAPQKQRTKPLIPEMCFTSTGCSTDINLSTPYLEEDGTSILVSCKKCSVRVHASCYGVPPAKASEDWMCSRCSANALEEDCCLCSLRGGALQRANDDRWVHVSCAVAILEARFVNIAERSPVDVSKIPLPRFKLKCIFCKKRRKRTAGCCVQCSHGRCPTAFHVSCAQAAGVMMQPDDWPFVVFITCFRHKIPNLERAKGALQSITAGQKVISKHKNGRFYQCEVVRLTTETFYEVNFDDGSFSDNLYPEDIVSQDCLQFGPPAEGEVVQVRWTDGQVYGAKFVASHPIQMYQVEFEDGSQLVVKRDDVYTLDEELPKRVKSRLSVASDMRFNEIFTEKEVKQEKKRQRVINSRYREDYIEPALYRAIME
The experiment in a line: Inhibition of KDM4A (unknown origin) using H3 K9Me3 (1 to 15 residues) as substrate.

Assay [3] has as its target Egl nine homolog 1 (Homo sapiens) (UniProt Q9GZT9). The experiment in a line: Inhibition of N-terminal His6-tagged truncated PHD2 (181 to 426 residues) (unknown origin) expressed in Escherichia coli BL21 DE3 using H1F1-alpha CODD as substrate preincubated for 15 mins followed by substrate addition and measured after 15 mins by mass spectrometry.
For assay [4] the target is unchanged. The experiment in a line: Inhibition of N-terminal His6-tagged truncated PHD2 (181 to 426 residues) (unknown origin) expressed in Escherichia coli BL21 DE3 using H1F1-alpha NODD as substrate preincubated for 15 mins followed by substrate addition and measured after 15 mins by mass spectrometry.

Sequence of Egl nine homolog 1 (Homo sapiens) (Q9GZT9 2-426 limits assumed): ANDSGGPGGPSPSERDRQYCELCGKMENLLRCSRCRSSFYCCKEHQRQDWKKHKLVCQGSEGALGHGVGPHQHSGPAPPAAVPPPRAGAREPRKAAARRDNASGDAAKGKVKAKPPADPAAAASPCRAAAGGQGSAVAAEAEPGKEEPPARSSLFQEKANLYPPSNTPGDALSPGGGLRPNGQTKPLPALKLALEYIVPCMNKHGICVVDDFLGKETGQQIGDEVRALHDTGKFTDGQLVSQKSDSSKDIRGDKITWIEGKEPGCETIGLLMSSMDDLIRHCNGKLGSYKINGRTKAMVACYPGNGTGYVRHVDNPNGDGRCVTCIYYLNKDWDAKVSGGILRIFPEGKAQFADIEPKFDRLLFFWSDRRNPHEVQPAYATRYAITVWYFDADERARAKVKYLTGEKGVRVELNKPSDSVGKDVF

In the case of `Cc1cccnc1CN1CCC2(CC1)C(=O)N(c1ccc(-c3ccccc3)cc1)C(=O)N2c1cc(C(=O)O)ccn1`, the IC50 in assay [1] and in assay [2] was over 25 µM throughout.

Take `O=C(Nc1ccc(-c2ccccc2)cc1)C1CCCN(Cc2ccccc2O)C1` (centres undefined): the inhibition result in assay [3] and in assay [4] was “inactive” in each case.

Turning to `O=C1N(c2ccc(-c3ccccc3)cc2)C(=O)C2(CCN(Cc3ccccc3O)CC2)N1c1ncccn1`, the values for the IC50 in assay [1] and in assay [2] were over 25 µM and 12.3 µM, respectively.

In the case of `O=C1N(c2ccc(-c3ccccc3)cc2)C(=O)C2(CCN(Cc3ncc[nH]3)CC2)N1c1ncccn1`, the IC50 in assay [1] and in assay [2] was over 25 µM in each case.

As to `O=C1N(c2ccc(-c3ccccc3)cc2)C(=O)C2(CCN(Cc3cccs3)CC2)N1c1ncccn1`, the IC50 in assay [1] and in assay [2] was over 25 µM throughout.

For the compound `O=C(Nc1ccc(-c2ccccc2)cc1)C1CCN(Cc2ncccc2O)CC1`, the inhibition entry in assay [3] and in assay [4] was “inactive” each time.

Regarding `O=C(Nc1ccc(-c2ccccc2)cc1)C1CCN(Cc2ccccc2O)CC1`, the inhibition result in assay [3] and in assay [4] was “inactive” each time.

As for `O=C1N(c2ccc(-c3ccccc3)cc2)C(=O)C2(CCNCC2)N1c1ncccn1`, the IC50 in assay [1] and in assay [2] was over 25 µM throughout.

Turning to `Cn1ccnc1CN1CCC2(CC1)C(=O)N(c1ccc(-c3ccccc3)cc1)C(=O)N2c1ncccn1`, the IC50 in assay [1] and in assay [2] was over 25 µM in each case.

For the compound `Cc1cccnc1CN1CCC2(CC1)C(=O)N(c1ccc(-c3ccccc3)cc1)C(=O)N2c1ncccn1`, the IC50 in assay [1] is over 25 µM.

For `O=C(Nc1ccc(-c2ccccc2)cc1)C1CCCN(Cc2ncccc2O)C1` (centres undefined), the inhibition entry in assay [3] and in assay [4] was “inactive” each time.

For the compound `O=C(NCc1ccc(-c2ccccc2)cc1)C1CCN(Cc2ccccc2O)CC1`, the inhibition result in assay [3] and in assay [4] was “inactive” throughout.

In the case of `O=C(NCc1ccc(-c2ccccc2)cc1)C1CCN(Cc2ncccc2O)CC1`, the inhibition entry in assay [3] and in assay [4] was “inactive” in each case.

In the case of `COc1cccc(CN2CCC3(CC2)C(=O)N(c2ccc(-c4ccccc4)cc2)C(=O)N3c2ncccn2)n1`, the IC50 in assay [1] and in assay [2] was over 25 µM each time.

Regarding `Cc1cccnc1CN1CCC2(CC1)NC(=O)N(c1ccc(-c3ccccc3)cc1)C2=O`, the IC50 in assay [1] and in assay [2] was over 25 µM in each case.

`Cn1ccnc1CN1CCC2(CC1)NC(=O)N(c1ccc(-c3ccccc3)cc1)C2=O`: the IC50 in assay [1] and in assay [2] was over 25 µM throughout.

Consider `Cc1cccnc1CN1CCCC(C(=O)Nc2ccc(-c3ccccc3)cc2)C1` (centres undefined), for which the inhibition result in assay [3] and in assay [4] was “inactive” throughout.

As for `Cc1cccnc1CN1CCC(C(=O)Nc2ccc(-c3ccccc3)cc2)CC1`, the inhibition result in assay [3] and in assay [4] was “inactive” in each case.

For `COc1ccnc(N2C(=O)N(c3ccc(-c4ccccc4)cc3)C(=O)C23CCN(Cc2ncccc2C)CC3)n1`, the IC50 in assay [1] is 21.6 µM; in assay [2], over 25 µM.

On to `Cc1cccnc1CN1CCC(C(=O)NCc2ccc(-c3ccccc3)cc2)CC1`, for which the inhibition entry in assay [3] and in assay [4] was “inactive” in each case.

The term IC50 denotes the concentration that gives 50% inhibition. Lower therefore signals inhibition by little substance.
